Assay results reported in paper PMC5007466, “VCP recruitment to mitochondria causes mitophagy impairment and neurodegeneration in models of Huntington's disease” (Nature Communications, 2016).

Legend:
[1] = molecular target: T1, full-length mouse VCP/p97 (Mus musculus, UniProt Q01853); assay: Isothermal titration calorimetry (ITC); type: binding; details: 15 °C
T1 construct: The full-length mouse VCP/p97 (residues 2–806) was expressed with an N-terminal 6xHis-tag; 6xHis (N); host or cells: Escherichia coli Rosetta (DE3)
Procedure: The full-length mouse VCP/p97 (residues 2–806) was expressed with an N-terminal 6xHis-tag (Addgene: plasmid # 12373) in the Rosetta (DE3) strain of Escherichia coli (Novagen) as previously described. Briefly, the cells were grown in LB media supplemented with Kanamycin and induced at OD∼1.0 for 16 h at 18 °C. Cells were homogenized in Buffer A (500 mM KCl, 25 mM Hepes pH 8.0, and 2 mM β-mercaptoethanol) in the presence of EDTA-free Complete Protease Inhibitor (Roche) and 2 mM PMSF. The lysate was cleared by centrifugation at 45,000 g for 1 h at 4 °C. Supernatant was incubated with 2 ml of Ni-NTA agarose resin (Qiagen) for 2 h at 4 °C. The resin was washed with Buffer A containing 50 mM imidazole and eluted with Buffer A containing 400 mM imidazole. VCP protein was further purified by passing through Superdex 200 increase 10/300 GL (GE Healthcare) size exclusion column equilibrated with Buffer B (250 mM KCL, 25 mM Hepes pH 8.0, 2 mM β-mercaptoethanol and 1 mM MgCl2). The fractions containing the pure sample, as determined by SDS–PAGE analysis, were pooled and concentrated to a final concentration of ∼3–5 mg ml^−1.
Binding of HV-3 peptide to VCP was measured by isothermal titration calorimetry on a MicroCal ITC200 (GE Healthcare). Before the calorimetric titrations, the protein was exchanged into Buffer C (100 mM NaCl, 10 mM Hepes, pH 8.0) on a PD-10 column (Amersham Biosciences) and concentrated to ∼5–6 mg ml^−1. The final concentration of protein in the cell (∼60–70 μM) was determined on a NanoDrop Spectrophotometer (Thermo Scientific NanoDrop 2000) using a molecular weight of 89.32 KDa and a molar extinction coefficient of […]. The HV-3 peptide was dissolved in Buffer C to a final concentration of 2 mM and loaded into the syringe. The measurements were made at a constant cell temperature of 15 °C and repeated at least three times. Thirty successive injections of 1.2 μl each were titrated into the cell with constant stirring at 1,000 r.p.m. An equilibration time of 150 s was set between consecutive injections. The binding isotherms were analysed with the MicroCal Origin software. For measurements of heat of dilution, the protein sample in the cell was replaced by Buffer C and all other conditions were kept identical.

[2] = tested on: YAC128 mice; assay: EM of striatal mitophagosomes; type: in vivo, mouse; details: YAC128, 3 mg kg^−1 per day, age 3–9 months, per 100 μm^2
Excerpt: The HdhQ7 and HdhQ111 cells were fixed by 2.5% glutaraldehyde in 0.1 M cacodylate buffer. Small pieces of the striata tissue of mice were fixed by immersion in triple aldehyde-DMSO. After rinsing in 0.1 M phosphate buffer (pH 7.3), the samples were post-fixed in ferrocyanide-reduced osmium tetroxide.
The above fixed samples were rinsed by water followed by overnight soaking in acidified uranyl acetate. After rinsing in distilled water, the blocks were dehydrated in ascending concentrations of ethanol, passed through propylene oxide, and embedded in Poly/Bed resin. Thin sections were sequentially stained with acidified uranyl acetate followed by a modification of Sato's triple lead stain. These sections were examined in a FEI Tecnai Spirit (T12) transmission electron microscope with a Gatan US4000 4kx4k CCD at the Case Western Reserve University EM core facility. Mitochondria from 15 random areas in each group were imaged by an experimenter blind to the experimental groups. The length of mitochondria was measured by NIH Image J software. The number of mitophagosomes per 100 μm^2 was counted. The number of gold particles labelling VCP on mitochondria were quantitated.
YAC128 mice (Tg) and their age-matched wt littermates were implanted with an osmotic pump containing TAT control peptide or HV-3 peptide (3 mg/kg/day, each) starting from the age of 3 months. […]

[3] = tested on: HD patient-iPS cell derived neurons; assay: Neurite length of DARPP-32/Tuj1-positive medium spiny neurons; type: cell-based, human; details: DARPP-32/Tuj1-positive neurons, 1 μM per day for 5 days versus TAT
Procedure: iPS cells from a normal subject and a HD patient (carrying 41 CAG repeats) were differentiated into neurons using the protocol from our previous studies. Briefly, iPS cells were plated onto 6-well plates precoated with 2.5% Matrigel and allowed to reach 90% confluence in feeder-free medium. For the first 10 days, cells were treated with SB431542 (10 μM; Tocris Bioscience) and Noggin (100 ng/ml) in Neural Media (NM) containing Neurobasal and DMEM (1:1), B27 supplement minus vitamin A (50 × , Invitrogen), N2 supplement (100 × , Invitrogen), GlutaMax (Invitrogen, 100 × ), FGF2 ([…]) and EGF ([…]), 100 units per ml penicillin and 100 μg ml^−1 streptomycin). For the next 10 days, cells were treated with human recombinant Sonic hedgehog (SHH, 200 ng/ml), DKK1 (100 ng/ml) and BDNF (20 ng/ml) and 10 μM Y27632 (Sigma) in neuronal differentiation medium containing Neurobasal and DMEM (1:3), B27, N2, GlutaMax and PS. […]
In patient-iPS cell-derived neurons, to ensure the observation of mitochondria in the medium spiny neurons, the cells were stained with a mitochondrial marker (anti-TOM20, 1:500) and markers for medium spiny neurons (DARPP-32, 1:200, Epitomics). The quantitation of neurite length was conducted only in the neurons immunopositive for both DARPP-32 and Tuj1 (neuron-specific class III beta-tubulin, 1:5,000, Covance). At least 50 neurons/group were counted.

T1 sequence (Q01853 2-806): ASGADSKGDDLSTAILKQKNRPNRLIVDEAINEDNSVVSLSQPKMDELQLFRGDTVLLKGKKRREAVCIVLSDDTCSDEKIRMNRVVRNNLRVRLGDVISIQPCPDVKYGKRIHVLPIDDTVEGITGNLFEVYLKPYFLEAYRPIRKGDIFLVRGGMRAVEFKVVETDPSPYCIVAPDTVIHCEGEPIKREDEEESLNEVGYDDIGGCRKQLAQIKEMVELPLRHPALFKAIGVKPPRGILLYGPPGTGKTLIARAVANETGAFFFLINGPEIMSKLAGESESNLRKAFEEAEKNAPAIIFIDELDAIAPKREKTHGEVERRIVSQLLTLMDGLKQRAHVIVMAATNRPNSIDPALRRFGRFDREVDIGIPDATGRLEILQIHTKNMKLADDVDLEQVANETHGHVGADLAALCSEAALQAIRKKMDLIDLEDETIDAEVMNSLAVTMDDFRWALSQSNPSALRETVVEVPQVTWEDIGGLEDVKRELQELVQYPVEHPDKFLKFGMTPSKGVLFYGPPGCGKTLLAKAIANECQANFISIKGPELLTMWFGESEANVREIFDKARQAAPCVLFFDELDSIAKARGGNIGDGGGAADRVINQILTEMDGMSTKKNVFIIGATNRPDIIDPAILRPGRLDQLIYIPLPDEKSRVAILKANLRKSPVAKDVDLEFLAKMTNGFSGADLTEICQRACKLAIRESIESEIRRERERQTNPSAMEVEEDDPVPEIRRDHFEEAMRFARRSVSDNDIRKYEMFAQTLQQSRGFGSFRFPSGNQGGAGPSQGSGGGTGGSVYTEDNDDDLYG

In the case of `CSCC[C@H](NC(=O)[C@@H](NC(=O)[C@H](CC(C)C)NC(=O)[C@@H](NC(=O)[C@H](Cc1c[nH]cn1)NC(=O)CCCCCNC(=O)[C@H](CCCNC(=N)N)NC(=O)[C@H](CCCNC(=N)N)NC(=O)[C@H](CCCNC(=N)N)NC(=O)[C@H](CCC(N)=O)NC(=O)[C@H](CCCNC(=N)N)NC(=O)[C@H](CCCNC(=N)N)NC(=O)[C@H](CCCCN)NC(=O)[C@H](CCCCN)NC(=O)[C@H](CCCNC(=N)N)NC(=O)CNC(=O)[C@@H](N)Cc1ccc(O)cc1)C(C)C)C(C)C)C(=O)N[C@@H](CS)C(=O)N[C@@H](C)C(=O)N[C@H](C(N)=O)[C@@H](C)O` [HV-3], the Kd ([1]; 100 mM NaCl, 10 mM Hepes pH 8.0, protein ∼60–70 μM, HV-3 2 mM in syringe, repeated at least three times) is reported as 17.9 ± 7 µM, the “n (stoichiometry)” value ([1]; pH 8.0) is reported as 2.02±0.23 and the ΔH ([1]; pH 8.0) is reported as -2.145 ± 0.65 kcal/mol. For the same compound, the ΔS ([1]; pH 8.0) was 13.97±3.4 cal mol^−1 deg^−1, the “number of mitophagosomes in striatum” value [2] was “reduced by HV-3 treatment” and the neurite shortening [3] was “reduced neurite shortening”.
